Assay results published in patent US10301287B2, “Solid forms of cenicriviroc mesylate and processes of making solid forms of cenicriviroc mesylate” (Tobira Therapeutics, Inc., priority 2016, dated 2019).

Columns and labels:
[1] = cited from earlier work
[2] = Tapped bulk density, compressibility (Carr's) index and Hausner ratio; type: physicochemical; design: Compressibility (Carr's) Index: scale not given here; conditions: for Interpretation (flow): from average compressibility index / Hausner ratio, Tables 7 and 8
Experimental: Tapped Bulk Density: Tapped bulk density analysis was performed by pouring powder that had been sieved through a 1 mm Retsch stainless steel test sieve into a clean, dry pre-weighed 50 ml measuring cylinder. Powder was added to a total volume of 45-50 ml without compacting the sample. The mass and the initial volume (V0) were recorded. The sample was tapped using a Copley JV2000 tapped density tester using the following number of taps: 10, 490, 750 and sets of 1250 taps up to a total of 10,000 taps (Table 6). The volume was recorded after each set of taps and the sample was tapped until it reached constant volume (Vf). For these samples the 10,000 tap volume was used as Vf. Each sample was analysed in duplicate and the tapped density, compressibility index (Carr's index) and Hausner ratios were calculated using the formulae given below. The results from the duplicate analysis were averaged and the average result was used to assess the flow properties of the sample, using the parameters given in Table 7 (see “The Science of Dosage Form Design”, ME Aulton, 1988) and Table 8 (see USP method <1174>; see also, Carr, R. L. Evaluating Flow Properties of Solids. Chem Eng. 1965, 72, 163-168). Tapped Bulk Density=M/Vf. [formula] [formula]

[3] = Flow properties, Revolution Powder Analyser; type: physicochemical; conditions: for Avalanche Angle / Avalanche Energy / Avalanche Time / Break Energy / Rest Angle: drum rotation speed 0.3 rpm; for Interpretation (flow): from rest angle, Table 10
Experimental: Flow Properties: The flow properties of the samples were analysed using a Revolution Powder Analyser. Approximately 100 ml of the sample is placed in a sample drum which has two borosilicate glass sides. A motor turns two high precision silicone rollers, which in turn rotate the drum. A digital camera with the assistance of cold cathode backlight illumination takes images of the powder during the rotation process. Using a drum rotation speed of 0.3 rpm the time to avalanche, avalanche angle, avalanche energy, break energy and rest angle are measured. The software calculates these properties by analysing the images produced as the drum is rotated. The results of these properties can be used to assess the flow of the bulk powder. The interpretation of the rest angle (angle of repose) are given in Table 10 (see USP method <1174>; see also, Carr, R. L. Evaluating Flow Properties of Solids. Chem Eng. 1965, 72, 163-168).

[4] = Particle size according to USP <429> (laser light diffraction); type: physicochemical
Experimental: In some embodiments, the particle size and the particle size distribution (e.g., D90, D50, and D10) of a compound of the invention is determined by the laser light diffraction particle size distribution analysis. The particle size distribution is determined in accordance with the Fraunhofer light diffraction method. In this method, a coherent laser beam passes through the sample and the resulting diffraction pattern is focused on a multi-element detector. Since the diffraction pattern depends, among other parameters, on particle size, the particle size distribution can be calculated based on the measured diffraction pattern of the sample. In one embodiment, the particle size and the particle size distribution is measured according to U.S. Pharmacopeia (USP) <429>.
Particle Size: The particle size of the Micronized CVC mesylate Form A and the non-micronized CVC mesylate Form A were determined according to USP <429> as shown in Table 5.

[5] = Intrinsic dissolution of compressed disc, Sirius T3; type: physicochemical; conditions: Britton-Robinson buffer, average pH 3.12 (Form A), room temperature, disc 7.07 mm^2
Experimental: In one embodiment, the extrapolated intrinsic dissolution rate is measured using dissolution disc having 7.07 mm^2 which was compressed under high pressure, ca. 100 kg, using a constructed die. In one embodiment, a Sirius T3 was used as the dissolution apparatus containing 20 mL of test media with stirring speed of the paddle set to −30%. In some embodiments, the dissolution was measured at room temperature. In one embodiment, dissolution was measured over 1 pH sector by ultraviolet (UV) spectrometry. In one embodiment, the UV spectra of the dissolution solution was collected over time, for example every 30 seconds, and converted to concentration using the molar extinction coefficient (MEC) by UV-metric titration. In one embodiment, the intrinsic dissolution rate was calculated by dividing the extrapolated dissolution rate by the surface area of the dissolution disc. In one embodiment, the dissolution media was Britton-Robinson buffer solution. In one embodiment, the dissolution media was pH 3.1 Britton-Robinson buffer solution. In one embodiment, the dissolution media was pH 3.2 Britton-Robinson buffer solution. In another embodiment, the dissolution media was pH 4.7 Britton-Robinson buffer solution.
Intrinsic Dissolution: Appropriate weight of the pure test compound material were used to fill the cavity of the dissolution disc and compressed under high pressure, ca. 100 kg, using a constructed die. No additives were added, avoiding any external interference in the intrinsic dissolution profile. The resulting non-disintegrating disc was transferred to the dissolution apparatus, Sirius T3, containing 20 ml of the test media at room temperature. The stirring speed of the paddle was set to −30%. Dissolution was then measured over 1 pH sector. The solution spectra was collected every 30 seconds over 120 collection points and converted to concentration using the molar extinction coefficient (MEC) by UV-metric titration. Intrinsic dissolution rate was calculated by dividing the extrapolated dissolution rate by the surface area of the disk (7.07 mm^2). All analysis was performed in duplicate, with XRPD both prior to and post dissolution analysis, where possible.
Dissolution media, Britton-Robinson buffer solutions, were prepared by adding a specified volume of sodium hydroxide (0.2 M) to 200 ml of a solution of mixed acid, of 0.04 M with respect to phosphoric acid (2.72 ml/l), acetic acid (2.30 ml/l) and boric acid (2.476 g/l). The amount of sodium hydroxide used to prepare each buffer is outlined below:
pH 3.2 Britton-Robinson buffer: 38 ml of sodium hydroxide.

[6] = BET surface area by multipoint nitrogen adsorption; type: physicochemical
Experimental: Samples were analysed for BET (Brunauer-Emmett-Teller) surface area by a multipoint Nitrogen adsorption method (volumetric technique) using a Micromeritics TriStar 3020 instrument. The sample degassing was undertaken using a Micromeritics FlowPrep 060 applying flowing argon of 99.995% purity at a flow rate of approximately 20 cc/min for two hours at 20° C. Samples were degassed in their respective analysis tubes and transferred directly to the TriStar II immediately after the degassing period.

[7] = Rep. 1, M/Vf, Vf = volume after 10,000 taps
[8] = Rep. 2, M/Vf, Vf = volume after 10,000 taps
[9] = listed as Form A Non-micronized

SMILES	Compressibility (Carr's) Index ([2]; Mean of duplicate)	Hausner Ratio ([2]; Mean of duplicate)	Tapped Bulk Density ([2]; Mean of duplicate) [g/mL]	Compressibility (Carr's) Index ([2]; Rep. 1)	Hausner Ratio ([2]; Rep. 1)	Tapped Bulk Density [2, 7] [g/mL]	Compressibility (Carr's) Index ([2]; Rep. 2)	Hausner Ratio ([2]; Rep. 2)	Tapped Bulk Density [2, 8] [g/mL]	Interpretation (flow) [2]	Avalanche Angle [3] [deg]	Avalanche Energy [3] [kJ/kg]	Avalanche Time [3] [s]	Break Energy [3] [kJ/kg]	Rest Angle [3] [deg]	Interpretation (flow) [3]	Extrapolated Dissolution Rate ([5]; Disc 1, 3.14 (Form C)) [µg/min]	Extrapolated Dissolution Rate ([5]; Disc 2, 3.15 (Form C)) [µg/min]	BET constant, C [6]	Surface area [6] [m^2/g]	further results
CCCCOCCOc1ccc(-c2ccc3c(c2)/C=C(/C(=O)Nc2ccc([S@@+]([O-])Cc4cncn4CCC)cc2)CCCN3CC(C)C)cc1 [Cenicriviroc, (S,E)-8-(4-(2-Butoxyethoxy)phenyl)-1-(2-methylpropyl)-N-(4-(((1-propyl-1H-imidazol-5-yl)methyl)sulfinyl)phenyl)-1,2,3,4-tetrahydrobenzo[b]azocine-5-carboxamide]																					Water solubility [1]: poorly water-soluble
CCCCOCCOc1ccc(-c2ccc3c(c2)/C=C(/C(=O)Nc2ccc([S@@+]([O-])Cc4cncn4CCC)cc2)CCCN3CC(C)C)cc1 [Form A Micronised]	28.6	1.4	0.2	27.55	1.42	0.16	29.59	1.40	0.16	Poor (23-35)	68.05	32.98	7.4	86.41	44.85	Passable (Passable - may hang up 41-45)	7.20	9.43	37.98	12.3614 ± 0.0440	Particle Size D10 ([4]; listed as Form A Micronized): 0.582 μm; Particle Size D50 ([4]; listed as Form A Micronized): 3.226 μm; Particle Size D90 ([4]; listed as Form A Micronized): 7.576 μm
CCCCOCCOc1ccc(-c2ccc3c(c2)/C=C(/C(=O)Nc2ccc([S+]([O-])Cc4cncn4CCC)cc2)CCCN3CC(C)C)cc1 (stereo not drawn) [Form A Non-micronised]	35.4	1.5	0.2	34.34	1.52	0.22	36.36	1.57	0.21	Very Poor	72.60	41.58	6.5	138.38	50.75	Poor (Poor - must agitate, vibrate 46-55)			42.99	3.0295 ± 0.0122	Particle Size D10 [4, 9]: 4.725 μm; Particle Size D50 [4, 9]: 13.803 μm; Particle Size D90 [4, 9]: 65.910 μm
CCCCOCCOc1ccc(-c2ccc3c(c2)/C=C(/C(=O)Nc2ccc([S+]([O-])Cc4cncn4CCC)cc2)CCCN3CC(C)C)cc1 (stereo not drawn) [Form C]	6.0	1.1	0.5	7.07	1.08	0.49	5.00	1.05	0.48	Excellent (5-15)	51.55	20.28	4.4	71.90	41.30	Passable (Passable - may hang up 41-45)	10.80	11.38	39.87	2.3071 ± 0.0058	Density and flow compared with the Form A samples ([3]; Revolution Analyzer flowability measurements): more dense and flows better than the Form A samples
